According to patent publication US20260001914A1, “MACROCYCLIC PEPTIDES TARGETING KRAS” (Merck Sharp & Dohme LLC, priority 2022, published 2026):
*1 amine or outer side, *2 acyl side, *3 side chain or, on linkers, in order; H or OH if unused. Where a SMILES comes first, the peptide text is derived from it. Bridges are numbered along the chain shown (N, C = ends). [ ]: non-standard residue; d: D form. Ala(pyrimidin-5-yl) = N[C@@H](Cc1cncnc1)C(=O)O; Phe(4-CH2NH2) = NCc1ccc(C[C@H](N)C(=O)O)cc1; X25 = O=C([C@H](Cc1ccc(F)nc1)N[*:1])[*:2]; X28 = O=C([C@H](Cc1ncccn1)N[*:1])[*:2]; X40 = CC(C)(F)C[C@H](N[*:1])C(=O)[*:2]; 1Nal = N[C@@H](Cc1cccc2ccccc12)C(=O)O; Phe(2-F) = N[C@@H](Cc1ccccc1F)C(=O)O; X31 = O=C([C@H](CCC1CC1)N[*:1])[*:2]; X1 = O=C(C12CC(CN[*:1])(C1)C2)[*:2]; Ala(cPr) = N[C@@H](CC1CC1)C(=O)O; NMeF = CN[C@@H](Cc1ccccc1)C(=O)O; PhLac = O=C(O)[C@@H](O)Cc1ccccc1; d(αMeC) = C[C@@](N)(CS)C(=O)O; Cba = N[C@@H](CC1CCC1)C(=O)O; hLeu = CC(C)CC[C@H](N)C(=O)O; NMeA = CN[C@@H](C)C(=O)O; Nle = CCCC[C@H](N)C(=O)O; Nva = CCC[C@H](N)C(=O)O

target: KRAS-G12D protein (Homo sapiens, UniProt P01116, G12D); experiment: SOS-mediated nucleotide exchange assay (BODIPY-GDP / Tb-streptavidin TR-FRET); format: biochemical
Sequence (P01116 1-188 isoform P01116-2 G12D): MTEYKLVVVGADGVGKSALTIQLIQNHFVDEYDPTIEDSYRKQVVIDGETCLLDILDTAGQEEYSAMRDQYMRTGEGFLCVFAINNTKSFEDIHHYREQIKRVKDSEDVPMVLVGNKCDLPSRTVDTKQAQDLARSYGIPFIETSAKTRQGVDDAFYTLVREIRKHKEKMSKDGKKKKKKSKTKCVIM

Row | Structure (SMILES) | EC50 [nM]
1 | CON=C1C[C@@H](Cc2ccccc2)C(=O)N(C)[C@@H](C)C(=O)N[C@@H](Cc2cncnc2)C(=O)N[C@@H](CC2CC2)C(=O)N[C@@H](Cc2ccccc2F)C(=O)N[C@@H](CCC(C)(F)F)C(=O)N(C)[C@@H](Cc2ccccc2)C(=O)NCC23CC1(C2)C3 (single isomer, unassigned) [compound 178, cyclo(CPhe-NMeA-PyrimAla-cPrA-Phe2F-Nle3F2-NMeF-MeOximamBCP)] | 1.7
2 | CC(C)CC[C@@H]1NC(=O)[C@H](Cc2ccccc2F)NC(=O)[C@H](CC(C)(C)F)NC(=O)[C@H](Cc2cncnc2)NC(=O)[C@H](C)N(C)C(=O)[C@H](Cc2ccccc2)OC(=O)C23CC(CNC(=O)[C@H](Cc4ccccc4)N(C)C1=O)(C2)C3 [compound 136, cyclo(FLac-NMeA-PyrimAla-Leu3F-Phe2F-hL-NMeF-amBCP)] (cyclo([NMeA][Ala(pyrimidin-5-yl)][X40][Phe(2-F)][hLeu][NMeF][X1][PhLac])) | 114
3 | C[C@H]1C(=O)N[C@@H](Cc2cncnc2)C(=O)N[C@@H](CC2CC2)C(=O)N[C@@H](Cc2ccccc2F)C(=O)N[C@@H](CC2CC2)C(=O)N(C)[C@@H](Cc2ccccc2)C(=O)NCC23CC(C2)(C3)C(=O)O[C@@H](Cc2ccccc2)C(=O)N1C [compound 267, cyclo(FLac-NMeA-PyrimAla-cPrA-Phe2F-cPrA-NMeF-amBCP)] (cyclo([Ala(cPr)][NMeF][X1][PhLac][NMeA][Ala(pyrimidin-5-yl)][Ala(cPr)][Phe(2-F)])) | 471
4 | CCCCC[C@@H]1NC(=O)[C@H](Cc2ccc(OC)cc2)NC(=O)[C@H](CC2CCC2)NC(=O)[C@H](Cc2cccnc2)NC(=O)[C@H](CCCNC(=N)N)NC(=O)[C@H](Cc2ccccc2)NC(=O)CSC[C@@](C)(C(N)=O)NC(=O)[C@H](Cc2ccccc2)N(C)C1=O [compound 347, cyclo(F-R~3Pal-cBuA-TyrOMe-Ahp-NMeF-aMeCl-ClAc)] | 5.72
5 | CCCC[C@@H]1NC(=O)[C@H](Cc2ccc(CN)cc2)NC(=O)[C@H](CCCNC(=N)N)NC(=O)[C@H](Cc2cccc3ccccc23)NC(=O)CSC[C@](C)(C(=O)O)NC(=O)[C@H](Cc2ccccc2)N(C)C(=O)[C@H](CCCC)NC(=O)[C@H](Cc2ccc(O)cc2)NC1=O [compound 144, cyclo(1Nal-R-Phe4CH2NH2-Nle-Y-Nle-NMeF-daMeC-ClAc)] ({CH2CO}-[1Nal]R[Phe(4-CH2NH2)][Nle]Y[Nle][NMeF][d(αMeC)]-OH; thioether N-8) | 1460
6 | C[C@H]1C(=O)N[C@@H](Cc2cncnc2)C(=O)N[C@@H](CC2CCC2)C(=O)N[C@@H](Cc2ccccc2F)C(=O)N[C@@H](CCC2CC2)C(=O)N(C)[C@@H](Cc2ccccc2)C(=O)NCC23CC(C2)(C3)C(=O)O[C@@H](Cc2ccccc2)C(=O)N1C [compound 115, cyclo(FLac-NMeA-PyrimAla-cBuA-Phe2F-hcPrA-NMeF-amBCP)] (cyclo([Cba][Phe(2-F)][X31][NMeF][X1][PhLac][NMeA][Ala(pyrimidin-5-yl)])) | 4
7 | CC(C)CC[C@@H]1NC(=O)[C@H](Cc2ccccc2F)NC(=O)[C@H](CC2CC2)NC(=O)[C@H](Cc2ncccn2)NC(=O)[C@H](C)N(C)C(=O)[C@H](Cc2ccccc2)OC(=O)C23CC(CNC(=O)[C@H](Cc4ccccc4)N(C)C1=O)(C2)C3 [compound 281, cyclo(FLac-NMeA-2PyrimAla-cPrA-Phe2F-hL-NMeF-amBCP)] (cyclo([Ala(cPr)][Phe(2-F)][hLeu][NMeF][X1][PhLac][NMeA][X28])) | 1210
8 | CCCC[C@@H]1NC(=O)[C@H](Cc2ccc(F)nc2)NC(=O)[C@H](C)N(C)C(=O)[C@H](Cc2ccccc2)OC(=O)C23CC(CNC(=O)[C@H](Cc4ccccc4)N(C)C(=O)[C@H](CCC)NC(=O)[C@H](Cc4ccccc4F)NC1=O)(C2)C3 [compound 234, cyclo(FLac-NMeA-4F3Pal-Nle-Phe2F-Nva-NMeF-amBCP)] (cyclo([NMeA][X25][Nle][Phe(2-F)][Nva][NMeF][X1][PhLac])) | 997
